Assay results taken from paper PMC3380172 (Journal of the American Chemical Society, 2012).
Like-named read-outs stand apart in the source and are kept apart here.

Columns and labels:
I172A mutant TbbTIM [1] = molecular target: T1, I172A mutant TbbTIM (Trypanosoma brucei brucei, UniProt P04789, I172A); experiment: TIM-catalyzed isomerization of DHAP and arsenate inhibition; type: biochemical; conditions: 30 mM TEA, pH 7.5, 25 °C, I = 0.1 (NaCl)
I172V mutant TbbTIM [2] = molecular target: T2, I172V mutant TbbTIM (Trypanosoma brucei brucei, UniProt P04789, I172V); experiment: as above; type: biochemical; conditions: 30 mM TEA, pH 7.5, 25 °C, I = 0.1 (NaCl)
L232A mutant TbbTIM [3] = molecular target: T3, L232A mutant TbbTIM (Trypanosoma brucei brucei, UniProt P04789, L232A); type: biochemical; conditions: for Fractional Product Yield fE: fraction of the three TIM-catalyzed products, 5 mM GAP, 3.4 nM L232A, D2O
I172A mutant TbbTIM [4] = molecular target: T1, I172A mutant TbbTIM; type: biochemical; conditions: for Fractional Product Yield fE: fraction of the three TIM-catalyzed products, 5 mM GAP, 65 nM I172A, D2O
wildtype TbbTIM [5] = conditions: cited from earlier work
L232A mutant TbbTIM [6] = molecular target: T3, L232A mutant TbbTIM; conditions: 30 mM TEA, pH 7.5, 25 °C, I = 0.1 (NaCl), cited from earlier work
WT chicken TIM [7] = conditions: cited from earlier work
E165D chicken TIM [8] = conditions: cited from earlier work
E165D/S96P chicken TIM [9] = conditions: cited from earlier work
I172A mutant TbbTIM [10] = molecular target: T1, I172A mutant TbbTIM; experiment: TIM-catalyzed isomerization of GAP; type: biochemical; conditions: 30 mM TEA, pH 7.5, 25 °C, I = 0.1 (NaCl)
I172V mutant TbbTIM [11] = molecular target: T2, I172V mutant TbbTIM; experiment: TIM-catalyzed isomerization of GAP; type: biochemical; conditions: 30 mM TEA, pH 7.5, 25 °C, I = 0.1 (NaCl)
wildtype TbbTIM [12] = type: biochemical, Trypanosoma brucei brucei; conditions: reaction of GAP in D2O, pD 7.9, 25 °C; from product yields
wildtype TbbTIM [13] = conditions: 30 mM TEA, pH 7.5, 25 °C, I = 0.1 (NaCl), cited from earlier work
L232A mutant TbbTIM [14] = molecular target: T3, L232A mutant TbbTIM; conditions: 30 mM TEA, pH 7.5, 25 °C, I = 0.1 (NaCl), cited from earlier work; remark: listed apart in the source
WT chicken TIM [15] = conditions: cited from earlier work; remark: listed apart in the source
E165D chicken TIM [16] = conditions: cited from earlier work; remark: listed apart in the source
E165D/S96P chicken TIM [17] = conditions: cited from earlier work; remark: listed apart in the source
I172V mutant TbbTIM [18] = molecular target: T2, I172V mutant TbbTIM; experiment: Reaction of [1-13C]-GA in D2O with and without phosphite dianion, 1H NMR; type: biochemical; conditions: for Average product yield (mole fraction), phosphite dianion-activated reaction / Fractional yield from reaction at the enzyme active site: 20 mM [1-13C]-GA, D2O; for Average product yield (mole fraction), phosphite dianion-activated reaction: pD 7.0, I = 0.1, 25 °C, average over [HPO3^2-]; for Fractional yield from reaction at the enzyme active site: value in parenthesis, [HPO3^2-] 0 mM, pD 7.0, 25 °C
I172A mutant TbbTIM [19] = molecular target: T1, I172A mutant TbbTIM; experiment: as above; type: biochemical; conditions: for Average product yield (mole fraction), phosphite dianion-activated reaction: 20 mM [1-13C]-GA, D2O, pD 7.0, I = 0.1, 25 °C, average over [HPO3^2-]
L232A mutant TbbTIM [20] = molecular target: T3, L232A mutant TbbTIM; experiment: as above; type: biochemical; conditions: for Average product yield (mole fraction), phosphite dianion-activated reaction: 20 mM [1-13C]-GA, D2O, pD 7.0, I = 0.1, 25 °C, average over [HPO3^2-]
[21] = isomerization of GAP in D2O with intramolecular transfer of hydrogen
[22] = reaction of GAP in D2O, pD 7.9, 25 °C, from product yields
[23] = unactivated reaction of [1-13C]-GA in D2O (no HPO3^2-)
[24] = isomerization of [1-13C]-GA in D2O
[25] = read-out: Ki (arsenate), inhibition of DHAP isomerization

O=C(CO)COP(=O)(O)O [DHAP, dihydroxyacetone phosphate]
kcat (DHAP) (I172A mutant TbbTIM [1]): 17 s⁻¹
Km (I172A mutant TbbTIM [1]; read-out: Km (DHAP)): 3700 µM
kcat (DHAP) (I172V mutant TbbTIM [2]): 65 s⁻¹
Km (I172V mutant TbbTIM [2]; read-out: Km (DHAP)): 200 µM
Fractional Product Yield fE (L232A mutant TbbTIM [3]; pD 7.9, 25 °C): 0.041
yield of product (L232A mutant TbbTIM [3]; [21]): 4%
Fractional Product Yield fE (I172A mutant TbbTIM [4]; pD 7.9, 25 °C): 0.13
yield of product (I172A mutant TbbTIM [4]; [21]): 13%
kcat (DHAP) (wildtype TbbTIM [5]; 30 mM TEA, pH 7.5, 25 °C, I = 0.1 (NaCl)): 300 s⁻¹
Km (wildtype TbbTIM [5]; read-out: Km (DHAP), 30 mM TEA, pH 7.5, 25 °C, I = 0.1 (NaCl)): 700 µM
kcat (DHAP) (L232A mutant TbbTIM [6]): 4.7 s⁻¹
Km (L232A mutant TbbTIM [6]; read-out: Km (DHAP)): 77 µM
kcat (DHAP) (WT chicken TIM [7]): 600 s⁻¹
Km (WT chicken TIM [7]; read-out: Km (DHAP)): 650 µM
kcat (DHAP) (E165D chicken TIM [8]): 4.1 s⁻¹
Km (E165D chicken TIM [8]; read-out: Km (DHAP)): 1200 µM
kcat (DHAP) (E165D/S96P chicken TIM [9]): 3.4 s⁻¹
Km (E165D/S96P chicken TIM [9]; read-out: Km (DHAP)): 53 µM

O=C[C@H](O)COP(=O)(O)O [GAP, R-glyceraldehyde 3-phosphate]
kcat (GAP) (I172A mutant TbbTIM [10]): 12 s⁻¹
Km (I172A mutant TbbTIM [10]; read-out: Km (GAP)): 150 µM
kcat (GAP) (I172V mutant TbbTIM [11]): 225 s⁻¹
Km (I172V mutant TbbTIM [11]; read-out: Km (GAP)): 58 µM
Rate Constant Ratio (kC1)D/(kC2)D (L232A mutant TbbTIM [3]; [22]): 8.8
Rate Constant Ratio kex/(kC1)H (L232A mutant TbbTIM [3]; [22]): 23
Rate Constant Ratio (kC1)D/(kC2)D (I172A mutant TbbTIM [4]; [22]): 0.74
Rate Constant Ratio kex/(kC1)H (I172A mutant TbbTIM [4]; [22]): 6.7
Rate Constant Ratio (kC1)D/(kC2)D (wildtype TbbTIM [12]): 1.7
Rate Constant Ratio kex/(kC1)H (wildtype TbbTIM [12]): 1.5
kcat (GAP) (wildtype TbbTIM [13]): 2100 s⁻¹
Km (wildtype TbbTIM [13]; read-out: Km (GAP)): 250 µM
kcat (GAP) (L232A mutant TbbTIM [14]): 220 s⁻¹
Km (L232A mutant TbbTIM [14]; read-out: Km (GAP)): 140 µM
kcat (GAP) (WT chicken TIM [15]): 8300 s⁻¹
Km (WT chicken TIM [15]; read-out: Km (GAP)): 420 µM
kcat (GAP) (E165D chicken TIM [16]): 4.2 s⁻¹
Km (E165D chicken TIM [16]; read-out: Km (GAP)): 78 µM
kcat (GAP) (E165D/S96P chicken TIM [17]): 68 s⁻¹
Km (E165D/S96P chicken TIM [17]; read-out: Km (GAP)): 66 µM

[2H]C([2H])(O)[13CH]=O [[1-^13C, 2,2-di-^2H]-GA]
yield of product (I172V mutant TbbTIM [18]; reaction of [1-13C]-GA in D2O in the absence of HPO3^2-): 25%
yield of product (I172A mutant TbbTIM [19]; [23]): 38%

[2H]C(O)[13CH]=O (stereo not drawn) [[1-^13C, 2-^2H]-GA]
Average product yield (mole fraction), phosphite dianion-activated reaction (L232A mutant TbbTIM [20]): 0.51 ± 0.02
Average product yield (mole fraction), phosphite dianion-activated reaction (I172V mutant TbbTIM [18]): 0.24 ± 0.02
Fractional yield from reaction at the enzyme active site (I172V mutant TbbTIM [18]): 0.55
Average product yield (mole fraction), phosphite dianion-activated reaction (I172A mutant TbbTIM [19]): 0.30 ± 0.02
yield of product (I172A mutant TbbTIM [19]; [23]): 15%

[2H][13CH](O)C=O (stereo not drawn) [[2-^13C, 2-^2H]-GA]
Average product yield (mole fraction), phosphite dianion-activated reaction (L232A mutant TbbTIM [20]): 0.48 ± 0.02
Average product yield (mole fraction), phosphite dianion-activated reaction (I172V mutant TbbTIM [18]): 0.63 ± 0.01
Fractional yield from reaction at the enzyme active site (I172V mutant TbbTIM [18]): 0.40
Average product yield (mole fraction), phosphite dianion-activated reaction (I172A mutant TbbTIM [19]): 0.25 ± 0.02

O=C[13CH2]O [[2-^13C]-GA]
Average product yield (mole fraction), phosphite dianion-activated reaction (L232A mutant TbbTIM [20]): 0.01 ± 0.001
yield of product (L232A mutant TbbTIM [20]; [24]): 1%
Average product yield (mole fraction), phosphite dianion-activated reaction (I172V mutant TbbTIM [18]): 0.13 ± 0.01
Fractional yield from reaction at the enzyme active site (I172V mutant TbbTIM [18]): 0.04
Average product yield (mole fraction), phosphite dianion-activated reaction (I172A mutant TbbTIM [19]): 0.02 ± 0.001
yield of product (I172A mutant TbbTIM [19]; [24]): 2%

O=[As](O)(O)O [arsenate, arsenate dianion, reference compound]
Ki (wildtype TbbTIM [5]; read-out: Ki (competitive inhibitor), arsenate dianion, competitive): 4.6 mM
Ki (WT chicken TIM [7]; [25]): 11 mM
Ki (E165D chicken TIM [8]; [25]): 12 mM
Ki (E165D/S96P chicken TIM [9]; [25]): 2.1 mM

[2H]C(O)C(=O)COP(=O)(O)O (stereo not drawn) [d-DHAP]
Fractional Product Yield fE (L232A mutant TbbTIM [3]; pD 7.9, 25 °C): 0.86
Fractional Product Yield fE (I172A mutant TbbTIM [4]; pD 7.9, 25 °C): 0.37

O=C[C@H](O)COP(=O)(O)O [d-GAP]
Fractional Product Yield fE (L232A mutant TbbTIM [3]; pD 7.9, 25 °C): 0.098
Fractional Product Yield fE (I172A mutant TbbTIM [4]; pD 7.9, 25 °C): 0.50
